Earlier results as cited in US20080069871A1, “H[…] DETERRENT DELIVERY SYSTEM” (priority 2006, published 2008).

Conditions: stated as reason for use as model drug

## Cc1ncc([N+](=O)[O-])n1CCO [metronidazole, Metronidazole]
  solubility in water and aqueous ethanol solutions: highly soluble
